Test results from patent publication US20260053171A1, “METHANOGEN INHIBITORS” (AGRIZERONZ LIMITED PARTNERSHIP, priority 2022, published 2026).

Tested on: methane production in rumen fluid
Assay: Rumen in vitro (RIV) assay, methane production from rumen fluid incubations
Type: cell-based, cattle
Details: Bos taurus, read-out: RIV % methane reduction +/− SD
Description: The compounds of the present invention were initially screened for activity using an in vitro fully automated incubation system for the measurement of total gas production and gas composition (methane and hydrogen). The system used is described in detail in the paper by Muetzel et al. (2014; Animal Feed Science and Technology 196, 1-11). The system in this specification is referred to as the rumen in vitro system or RIV. The RIV system provides a relatively simple tool for determining the rate and production of methane and also whether the rate and production of methane is inhibited or reduced by a particular compound or feed. Rumen in vitro assays use rumen fluid from donor animals (typically either sheep or cattle) which is typically combined with a buffer and then incubated in sealed fermentation vessels at 39° C. for either 24 or 48 h. These assays systems have been well-characterised and used by the scientific community over the last two decades (Rymer et al. 2005). The system that has been used here to characterise the effects of inhibitors on methane production and gas production, and the formation of H2, was described by Muetzel et al. (2014). Rumen in vitro assay systems reflect what can occur in the rumen in vivo, but only short-term, due to their short incubation times (typically not exceeding 48 h) which is limited by its buffering capacity and the fact that it is a closed system. Stock solutions of inhibitors were re-suspended in dimethylformamide (DMF) at concentrations 1000-fold higher than the highest used for the assays. Any further dilutions were also prepared using DMF. The total amount of inhibitor solution added to the rumen fluid-buffer mixture (60 mL) was 60 μl. Incubations used 60 ml of medium containing 12 ml of filtered rumen fluid and 48 ml of buffer in serum bottles for 24-48 h, essentially as described by Muetzel et al. (2014). Two fistulated cattle were used as donor animals for rumen fluid and treatments were incubated in duplicate bottles. Sets of duplicate incubation vials that contained ryegrass (with rumen fluid-buffer mixture), and ryegrass with 30 μM bromoethanesulfonate (BES) were also incubated as negative and positive controls, respectively. One experiment consists of 2 replicates of an inhibitor at any one concentration run at the same time, and a run can contain up to 32 bottle, including positive (30 µM BES) and negative (no inhibitor added) controls. Compound 1, for example, was tested using the 60 mL rumen in vitro assay system at 50 μM, 10 μM, and 2 μM final concentrations and compared to a positive control with 30 µM BES.

| SMILES | inhibition at 10 µM | inhibition at 50 µM | inhibition at 2 µM |
| --- | --- | --- | --- |
| O=C(O)CCC(=O)N1N=C(c2ccc(-c3ccc4[nH]ccc4c3)cc2)CC1c1ccc2nccnc2c1 (centres unmarked) [Compound 106, 4-(3-(4-(1H-Indol-5-yl)phenyl)-5-(quinoxalin-6-yl)-4,5-dihydro-1H-pyrazol-1-yl)-4-oxobutanoic acid] | < 5% | 26 ± 2.5% |  |
| CC(C)Oc1ccc(-c2ccc(C3=NN(C(=O)CCC(=O)O)C(c4ccc5nccnc5c4)C3)cc2)cn1 (centres unmarked) [Compound 107, 4-(3-(4-(6-Isopropoxypyridin-3-yl)phenyl)-5-(quinoxalin-6-yl)-4,5-dihydro-1H-pyrazol-1-yl)-4-oxobutanoic acid] | 33.4 ± 2.1% |  |  |
| O=C(O)CCC(=O)N1N=C(c2ccc(-c3ccc(SC(F)(F)F)cc3)cc2)CC1c1ccc2nccnc2c1 (centres unmarked) [Compound 94, 4-Oxo-4-(5-(quinoxalin-6-yl)-3-(4′-((trifluoromethyl)thio)-[1,1′-biphenyl]-4-yl)-4,5-dihydro-1H-pyrazol-1-yl)butanoic acid] | 32.7 ± 1.2% |  |  |
| CC(C)(C)C(=O)OCOC(=O)CCC(=O)N1N=C(c2ccc(Cl)cc2)CC1c1ccc2nccnc2c1 (centres unmarked) [Compound 54, (Pivaloyloxy)methyl 4-(3-(4-chlorophenyl)-5-(quinoxalin-6-yl)-4,5-dihydro-1H-pyrazol-1-yl)-4-oxobutanoate] |  | 23.8 ± 9.4% |  |
| CC(C)S(=O)(=O)NC(=O)CCC(=O)N1N=C(c2ccc(OC(F)(F)F)cc2)CC1c1ccc2nccnc2c1 (centres unmarked) [Compound 118, N-(Isopropylsulfonyl)-4-oxo-4-(5-(quinoxalin-6-yl)-3-(4-(trifluoromethoxy)phenyl)-4,5-dihydro-1H-pyrazol-1-yl) butanamide] | 29.7 ± 6% |  |  |
| O=C(CCC(=O)N1N=C(c2cccc(-c3ccccc3)c2)CC1c1ccc2nccnc2c1)NS(=O)(=O)c1ccccc1 (centres unmarked) [Compound 122, 4-(3-([1,1′-Biphenyl]-3-yl)-5-(quinoxalin-6-yl)-4,5-dihydro-1H-pyrazol-1-yl)-4-oxo-N-(phenylsulfonyl) butanamide] | 78.9 ± 2.3% |  | 7.4 ± 4.7% |
| O=C(O)CCC(=O)N1N=C(c2ccc(-c3cc(Cl)cc(Cl)c3)cc2)CC1c1ccc2nccnc2c1 (centres unmarked) [Compound 28, 4-(3-(3′,5′-Dichloro-[1,1′-biphenyl]-4-yl)-5-(quinoxalin-6-yl)-4,5-dihydro-1H-pyrazol-1-yl)-4-oxobutanoic acid] | 84 ± 0.8% | 96.1 ± 0.1% | 8 ± 2.1% |
| COc1ccc(-c2cccc(C3=NN(C(=O)CCC(=O)O)C(c4ccc5nccnc5c4)C3)c2)cc1 (centres unmarked) [Compound 99, 4-(3-(4′-Methoxy-[1,1′-biphenyl]-3-yl)-5-(quinoxalin-6-yl)-4,5-dihydro-1H-pyrazol-1-yl)-4-oxobutanoic acid] | < 5% | 71.8% |  |
| Cc1ccccc1S(=O)(=O)NC(=O)CCC(=O)N1N=C(c2ccc(Cl)cc2)CC1c1ccc2nccnc2c1 (centres unmarked) [Compound 124, 4-(3-(4-Chlorophenyl)-5-(quinoxalin-6-yl)-4,5-dihydro-1H-pyrazol-1-yl)-4-oxo-N-(o-tolylsulfonyl) butanamide] | 12.7 ± 0.8% |  |  |
| CC(C)Oc1ccc(-c2ccc(C3=NN(C(=O)CCC(=O)NS(=O)(=O)C(C)C)C(c4ccc5nccnc5c4)C3)cc2)cc1 (centres unmarked) [Compound 120, 4-(3-(4′-Isopropoxy-[1,1′-biphenyl]-4-yl)-5-(quinoxalin-6-yl)-4,5-dihydro-1H-pyrazol-1-yl)-N-(isopropylsulfonyl)-4-oxobutanamide] | 70.4 ± 5.5% |  | 12.6 ± 1.4% |
| CCOc1ccc(-c2ccc(C3=NN(C(=O)CCC(=O)O)C(c4ccc5nccnc5c4)C3)cc2)cc1 (centres unmarked) [Compound 79, 4-(3-(4′-Ethoxy-[1,1′-biphenyl]-4-yl)-5-(quinoxalin-6-yl)-4,5-dihydro-1H-pyrazol-1-yl)-4-oxobutanoic acid] | 81.5 ± 0.1% |  | 25.2 ± 2.5% |
| O=C(O)CCC(=O)N1N=C(c2ccc(Cl)cc2)CC1c1ccc2c(c1)OCCO2 (centres unmarked) [Compound 39, 4-(3-(4-Chlorophenyl)-5-(2,3-dihydrobenzo[b][1,4]dioxin-6-yl)-4,5-dihydro-1H-pyrazol-1-yl)-4-oxobutanoic acid] | 20 ± 5.1% | 79.2% |  |
